Here are results for 27 compounds from patent US20250206730A1 (AUTOTELIC BIO INC., priority 2022, published 2025).

Experiment [1] concerns TGF-β signaling. The experiment is described as follows: Assay for evaluating cellular inhibition of TGF-β signaling, HEK293 (SBE reporter) luciferase reporter. The experiment is classed as cell-based. The note with it: Homo sapiens; HEK293 (SBE reporter) stable cells, 0.5% FBS, 2 h pre-treatment, TGF-β1 2 ng/mL 24 h; read-out: IC50 HEK 293 Cell. The procedure:
[Example 2] Assay for Evaluating Cellular Inhibition of TGF-β Signaling
4T1 (SBE-luc2P) transient pool that have SBE-luc2P (hygro) expression plasmid or HEK293 (SBE reporter) stable cells (BPS bioscience) were seeded at 6×10^3 cells/well or 2.5×10^4 cells/well in 96-well plate, respectively. 4T1 (SBE-luc2P) transient pool were pre-treated with novel compound synthesized in Example 1 above in 0.2% FBS at approximately 60% confluence at 37° C. in 5% CO2. Also, HEK293 (SBE reporter) stable cells were pre-treated with each test compounds of formula in 0.5% FBS at approximately 80% confluence at 37° C. in 5% CO2. After 2 hours, cells were treated with TGF-β1 (2 ng/mL) for 24 h at 37° C. in 5% CO2. Cell lysates were prepared using Luciferase Assay (Promega) according to the manufacturer's instruction, and luminescence was measured by a plate reader, Biotek Synergy H1 (Vermont, USA).
In general terms: In a reporter assay the amount or activity of a reporter protein is the signal.

The target of a further experiment is T1, ALK5 kinase (Homo sapiens, UniProt P36897).
T1 sequence (P36897 34-503): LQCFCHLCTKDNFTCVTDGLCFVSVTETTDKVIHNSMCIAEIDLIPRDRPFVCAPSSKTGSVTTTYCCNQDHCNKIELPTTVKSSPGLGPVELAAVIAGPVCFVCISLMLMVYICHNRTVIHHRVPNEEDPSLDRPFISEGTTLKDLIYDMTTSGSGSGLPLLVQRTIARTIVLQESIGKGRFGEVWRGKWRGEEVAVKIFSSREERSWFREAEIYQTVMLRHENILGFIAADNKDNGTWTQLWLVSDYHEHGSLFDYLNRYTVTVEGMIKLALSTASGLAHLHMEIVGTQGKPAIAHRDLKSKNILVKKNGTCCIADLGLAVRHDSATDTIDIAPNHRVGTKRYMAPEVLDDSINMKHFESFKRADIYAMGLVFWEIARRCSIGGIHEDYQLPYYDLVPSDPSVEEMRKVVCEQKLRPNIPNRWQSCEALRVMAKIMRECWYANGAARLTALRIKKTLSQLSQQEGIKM
The experiment is described as follows: LanthaScreen Eu Kinase Binding Assay. The settings on record: Kinase Tracer 178, Eu-anti-GST Antibody, read-out: IC50 Enzyme. Put shortly:
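Compound (1% DMSO final) preincubated 30 min at RT with GST-tagged ALK5, then Eu-anti-GST antibody and Kinase Tracer 178 added for 60 min at RT. TR-FRET read at 340 nm excitation; 665/615 nm emission ratio falls as compound binding rises.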
Background: Time-resolved FRET reads energy transfer from a long-lived donor to a nearby acceptor.

The subject of experiment [2] is TGF-β signaling. The experiment is described as follows: Assay for evaluating cellular inhibition of TGF-β signaling, 4T1 (SBE-luc2P) luciferase reporter. The note with it: Mus musculus, 4T1, 4T1 (SBE-luc2P) transient pool, 0.2% FBS, 2 h pre-treatment, TGF-β1 2 ng/mL 24 h; read-out: IC50 4T1 Cell. Format: cell-based. Put shortly: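 4T1 cells transiently carrying SBE-luc2P (6×10^3/well, 0.2% FBS, ~60% confluence) or HEK293 SBE-reporter stable cells (2.5×10^4/well, 0.5% FBS, ~80% confluence) pre-treated with compound for 2 h. TGF-β1 (2 ng/mL) then added for 24 h at 37 °C; luciferase luminescence read from lysates.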

As usually defined, the IC50 is the concentration needed to halve the response being measured.

`CCc1nc(-c2ccccc2)c(Oc2ccnc(Nc3ccc(C(=O)O)cc3)n2)s1` [A-246, 4-((4-((2-Ethyl-4-phenylthiazol-5-yl)oxy)pyrimidin-2-yl)amino)benzoic acid]: the IC50 in the experiment with TGF-β signaling [1] is less than 100 nM.
Same read-out and setting: next, `CCc1nc(-c2ccccc2)c(Oc2ccnc(Nc3ccc(N4CCC(N)C4)cc3)c2)s1` (stereo not shown) [A-214, N-(4-(3-Aminopyrrolidin-1-yl)phenyl)-4-((2-ethyl-4-phenylthiazol-5-yl)oxy)pyridin-2-amine]: less than 100 nM.
On the same count and under the same terms, next, `CCc1nc(-c2ccccc2)c(Oc2ccnc(Nc3ccc(-c4cn[nH]c4)cn3)c2)s1` [A-213, N-(5-(1H-Pyrazol-4-yl)pyridin-2-yl)-4-((2-ethyl-4-phenylthiazol-5-yl)oxy)pyridin-2-amine]: less than 100 nM; `CCc1nc(-c2ccccc2)c(Oc2ccnc(Nc3ccc(NCCN4CCN(C)CC4)cn3)c2)s1` [A-209, N^2-(4-((2-Ethyl-4-phenylthiazol-5-yl)oxy)pyridin-2-yl)-N^5-(2-(4-methylpiperazin-1-yl)ethyl)pyridine-2,5-diamine]: less than 100 nM.
With `NC(=O)c1cccc(Nc2cc(Oc3oc(C4CC4)nc3-c3ccccc3)ccn2)n1` [A-299, 6-((4-((2-Cyclopropyl-4-phenyloxazol-5-yl)oxy)pyridin-2-yl)amino)picolinamide], the IC50 in the experiment on TGF-β signaling [1] was less than 100 nM.
Still for that read-out and setting: the figure for `CCc1nc(-c2ccccc2)c(Oc2ccnc(Nc3ccc(C(=O)O)cn3)n2)s1` [A-244, 6-((4-((2-Ethyl-4-phenylthiazol-5-yl)oxy)pyrimidin-2-yl)amino)nicotinic acid] is more than 100 nM; for `CCc1nc(-c2ccccc2)c(Oc2ccnc(Nc3ccc(NCCN4CCN(C(C)C)CC4)cn3)c2)s1` [A-212, N^2-(4-((2-Ethyl-4-phenylthiazol-5-yl)oxy)pyridin-2-yl)-N^5-(2-(4-isopropylpiperazin-1-yl)ethyl)pyridine-2,5-diamine] it is less than 100 nM; for `CCc1nc(-c2ccccc2)c(Oc2ccnc(Nc3ccc(C(=O)NC(C)C)cn3)c2)s1` [A-196, 6-((4-((2-Ethyl-4-phenylthiazol-5-yl)oxy)pyridin-2-yl)amino)-N-isopropylnicotinamide] it is less than 100 nM.
Regarding `Cc1cccc(-c2nc(N(C)C)sc2Oc2ccnc(Nc3cccc(S(N)(=O)=O)c3)c2)n1` [A-283, 3-((4-((2-(Dimethylamino)-4-(6-methylpyridin-2-yl)thiazol-5-yl)oxy)pyridin-2-yl)amino)benzenesulfonamide], the IC50 on ALK5 kinase and in the experiment on TGF-β signaling [2] was less than 100 nM throughout.
As for `CCc1nc(-c2ccccc2)c(Oc2ccnc(Nc3cccc(C(N)=O)c3)c2)s1` [A-183, 3-((4-((2-Ethyl-4-phenylthiazol-5-yl)oxy)pyridin-2-yl)amino)benzamide], the IC50 on ALK5 kinase and with TGF-β signaling [2] was less than 100 nM throughout.
Regarding `NC(=O)c1ccc(Nc2cc(Oc3sc(C4CCCCC4)nc3-c3ccccc3)ccn2)nc1` [A-177, 6-((4-((2-Cyclohexyl-4-phenylthiazol-5-yl)oxy)pyridin-2-yl)amino)nicotinamide], the half-maximal inhibitory concentration (IC50) on ALK5 kinase and with TGF-β signaling [2] was more than 100 nM in each case.
As for `NC(=O)c1cccc(Nc2cc(Oc3sc(C4CC4)nc3-c3ccccc3)ccn2)n1` [A-124, 6-((4-((2-Cyclopropyl-4-phenylthiazol-5-yl)oxy)pyridin-2-yl)amino)picolinamide], the IC50 at ALK5 kinase and in the experiment on TGF-β signaling [2] was less than 100 nM in each case.
Regarding `O=C(O)c1cccc(Nc2cc(Oc3sc(Br)nc3-c3ccccc3)ccn2)c1` [A-171, 3-((4-((2-Bromo-4-phenylthiazol-5-yl)oxy)pyridin-2-yl)amino)benzoic acid], the figures for the IC50 on ALK5 kinase and in the experiment on TGF-β signaling [2] were less than 100 nM and more than 100 nM, respectively.
The corresponding values for `CN(C)c1nc(-c2ccccc2)c(Oc2ccnc(Nc3cccc(C(N)=O)n3)c2)s1` [A-160, 6-((4-((2-(Dimethylamino)-4-phenylthiazol-5-yl)oxy)pyridin-2-yl)amino)picolinamide] are less than 100 nM and less than 100 nM.
Turning to `Nc1nc(-c2ccc3ccccc3c2)c(Oc2ccnc(Nc3cccc(S(N)(=O)=O)c3)c2)s1` [A-234, 3-((4-((2-Amino-4-(naphthalen-2-yl)thiazol-5-yl)oxy)pyridin-2-yl)amino)benzenesulfonamide], the IC50 on ALK5 kinase and in the experiment on TGF-β signaling [2] was more than 100 nM each time.
For `COC(=O)c1cccc(Nc2cc(Oc3sc(Br)nc3-c3ccccc3)ccn2)c1` [A-170, Methyl 3-((4-((2-bromo-4-phenylthiazol-5-yl)oxy)pyridin-2-yl)amino)benzoate], the IC50 at ALK5 kinase was less than 100 nM; with TGF-β signaling [2], more than 100 nM.
The corresponding values for `CN(C)C(=O)c1cccc(Nc2cc(Oc3sc(N)nc3-c3ccccc3)ccn2)c1` [A-10, 3-((4-((2-Amino-4-phenylthiazol-5-yl)oxy)pyridin-2-yl)amino)-N,N-dimethylbenzamide] are less than 100 nM and more than 100 nM.
Consider `CCS(=O)(=O)Nc1cccc(Nc2cc(Oc3sc(C4CC4)nc3-c3ccccc3)ccn2)c1` [A-122, N-(3-((4-((2-Cyclopropyl-4-phenylthiazol-5-yl)oxy)pyridin-2-yl)amino)phenyl)ethanesulfonamide], for which the IC50 at ALK5 kinase and with TGF-β signaling [2] was less than 100 nM each time.
As to `CNC(=O)c1cccc(Nc2cc(Oc3sc(C4CC4)nc3-c3ccccc3)ccn2)n1` [A-125, 6-((4-((2-Cyclopropyl-4-phenylthiazol-5-yl)oxy)pyridin-2-yl)amino)-N-methylpicolinamide], the half-maximal inhibitory concentration (IC50) at ALK5 kinase and in the experiment with TGF-β signaling [2] was less than 100 nM in each case.
In the case of `CNc1nc(-c2ccccc2)c(Oc2ccnc(Nc3cccc(C(=O)O)c3)c2)s1` [A-57, 3-((4-((2-(Methylamino)-4-phenylthiazol-5-yl)oxy)pyridin-2-yl)amino)benzoic acid], the IC50 on ALK5 kinase is less than 100 nM; in the experiment on TGF-β signaling [2], more than 100 nM.
The corresponding values for `CCc1nc(-c2cccc(C)n2)c(Oc2ccnc(Nc3ccc(C(=O)O)cn3)c2)s1` [A-252, 6-((4-((2-Ethyl-4-(6-methylpyridin-2-yl)thiazol-5-yl)oxy)pyridin-2-yl)amino)nicotinic acid] are less than 100 nM and less than 100 nM.
The corresponding values for `CNC(=O)c1cccc(Nc2cc(Oc3sc(C)nc3-c3ccccc3)ccn2)c1` [A-69, N-Methyl-3-((4-((2-methyl-4-phenylthiazol-5-yl)oxy)pyridin-2-yl)amino)benzamide] are less than 100 nM and less than 100 nM.
The corresponding values for `Cc1nc(-c2ccccc2)c(Oc2ccnc(Nc3cccc(NS(=O)(=O)C(F)(F)F)c3)c2)s1` [A-107, 1,1,1-Trifluoro-N-(3-((4-((2-methyl-4-phenylthiazol-5-yl)oxy)pyridin-2-yl)amino)phenyl)methanesulfonamide] are less than 100 nM and less than 100 nM.
Regarding `O=C(NO)c1ccc(Nc2cc(Oc3sc(C4CC4)nc3-c3ccccc3)ccn2)cc1` [A-139, 4-((4-((2-Cyclopropyl-4-phenylthiazol-5-yl)oxy)pyridin-2-yl)amino)-N-hydroxybenzamide], the IC50 is less than 100 nM at ALK5 kinase and more than 100 nM with TGF-β signaling [2].
The corresponding values for `Cc1cccc(-c2nc(N(C)C)sc2Oc2ccnc(Nc3ccc(C(N)=O)cn3)c2)n1` [A-284, 6-((4-((2-(Dimethylamino)-4-(6-methylpyridin-2-yl)thiazol-5-yl)oxy)pyridin-2-yl)amino)nicotinamide] are less than 100 nM and less than 100 nM.
The corresponding values for `CCc1nc(-c2ccccc2)c(Oc2ccnc(Nc3ccc(C(C)(C)O)nc3)c2)s1` [A-187, 2-(5-((4-((2-Ethyl-4-phenylthiazol-5-yl)oxy)pyridin-2-yl)amino)pyridin-2-yl)propan-2-ol] are less than 100 nM and more than 100 nM.
`Cc1cccc(-c2nc(C(C)C)sc2Oc2ccnc(Nc3ccc(C(N)=O)cn3)c2)n1` [A-288, 6-((4-((2-Isopropyl-4-(6-methylpyridin-2-yl)thiazol-5-yl)oxy)pyridin-2-yl)amino)nicotinamide]: the IC50 on ALK5 kinase and in the experiment on TGF-β signaling [2] was less than 100 nM in each case.
